One series deals with PC3-M-luc cells. Description: PCa orthotopic implantation, primary tumor growth and lung metastasis. Type of series: in vivo, mice. The settings on record: orthotopic PC3-M-luc, 150 mg/kg KBU2046 daily. Here is the method:
To assess the efficacy of a spectrum of docetaxel concentrations, mice received orthotopic implants of PC3-M-luc cells, were treated with 0, 10 or 20 mg/kg docetaxel, and tumor growth monitored with weekly IVIS imaging. […] Subsequently, mice with orthotopic implants of PC3-M-luc cells were treated with docetaxel, KBU2046, docetaxel+KBU2046 or vehicle, as denoted, and effects on primary tumor growth and lung metastasis quantified (FIGS. 2A, 2B, and 2C).
Cohorts of N=10 mice bearing orthotopic implants of PC3-M-luc cells were treated daily with 150 mg/kg KUB2046 (46), intraperitoneal docetaxel 7.5 mg/kg weekly (doc), the combination (doc+46), or with oral and intraperitoneal vehicle (CO). KBU2046 treatment began 3 days before implantation and docetaxel began 1 week after. (A) Lung metastasis measured by qPCR for human Alu sequences, expressed as percent control (B) Weekly IVIS imaging of tumor. (C) Tumor weight. * denotes P<0.05 for differences between cohorts denoted by bars. All data are mean±SEM.
PCa orthotopic implantation: Orthotopic implantation of 2.5×10^5 PC3M-luc into 7-8 week old male athymic mice was performed as previously described by us (5, 52 Xu et al., above; and Pavese et al., J Vis Exp, e50873 (2013)). Daily oral gavage treatment with 150 mg/kg KBU2046 or was initiated 3 days prior to implantation and continued throughout the duration of the study. Weekly IP injections with 7.5 mg/kg docetaxel or control were administered beginning one week post implantation. Primary tumor out growth was monitored via weekly IVIS imaging. At the completion of the study the primary tumor was resected and weighed and lungs were resected and snap frozen. To determine the human PCa metastatic burden in each mouse lung, the snap frozen tissue was pulverized, DNA isolated and Alu-sequencing performed as previously described (19). […] (SEQ ID NO: 3). The 144RH probe was labeled with a 5′ fluorescent reporter (6-FAM) and a 3′ fluorescent quencher (Black Hole Quencher). The relative content of human DNA was calculated with using the comparative CT method, CT (sample)-CT(negative control). All samples were run in triplicate and were repeated.

The subject of a further series is PC3-M cells. The experiment in a line: 7 day colony formation assay, chemotherapy with or without KBU2046. Type of series: cell-based, human. Here is the method:
To assess the impact of cytotoxic chemotherapy on PCa growth kinetics seven-day soft agar colony formation assays and three-day MTT cell growth inhibition assays were performed as described by us ([…] et al., Cancer Lett 352, 179-186 (2014)). MTT assays were in replicates of N=3, and were repeated, soft agar assays were in replicates of N=2 and are presented as mean number of colonies, expressed as percent of untreated controls. For PC3-M PCa and MDA-MB-231 triple negative breast cancer cells, data are the mean±SD (N=2 replicates) number of colonies in 7 day colony formation assays. All data are expressed as the percentage of untreated control cells. Cells were treated with 10 μM KBU2046 or vehicle (CO), and the indicated concentration and type of chemotherapy.

The test system of series [1] is human prostate and breast cancer. The settings on record: oral administration, nanomolar concentrations; cited from earlier work.
The next series concerns LNCaP/AR-luc cells. Description: Castration resistant PCa orthotopic implantation, tumor outgrowth. The series is classed as in vivo, mice. The settings on record: orthotopic implants, 80 mg/kg KBU2046 oral, treatment from 12 weeks. As to the method:
To complete our assessments of the androgen related paradigm, the effect of KBU2046 on resistance to hormone therapy was evaluated. The outgrowth of LNCaP/AR-luc cells in castrate mice is routinely utilized as a model to emulate the transition to a castration resistant phenotype (Tran et al., Science 324, 787-790 (2009)). In this model, tumor outgrowth is detectable ˜8 weeks post implantation, and growth kinetics are typically monitored until 16 weeks post implantation. Here, two treatment approaches were investigated, the effects of beginning treatment early at 4 weeks, or late at 12 weeks, and were performed in mice receiving subcutaneous or orthotopic implants, respectively (FIGS. 3F and 3G).
LNCaP or VCaP cells cultured in hormone free media were treated with R1881 (R), KBU2046 (46) and/or enzalutamide (E). (FIGS. 3A and 3B) Effects on AR-responsive gene expression. PSA expression was measured by qRT/PCR, normalized to GAPDH and expressed as a percent of control cells (N=3 replicates); * denotes P<0.05 for groups separated by bar. (FIGS. 3C and 3D) Effects on cell growth. Three day growth assays were performed. Data are the number of viable cells, expressed as % of control (N=3 replicates); * P<0.05 compared to control. (E) Effects on AR activation. […] Data are tumor size, expressed as luminescence intensity. All data are expressed as mean±SEM. […]

Molecules are shown by their SMILES.

`O=C1c2ccccc2OCC1c1ccc(F)cc1` (stereo not shown) [KBU2046, 3-(4-fluorophenyl)chroman-4-one]: in the series with PC3-M-luc cells (docetaxel 7.5 mg/kg weekly), the “decrease of tumor weight compared to control” value is listed as “no significant effect”. Also, the “decrease of lung metastasis compared to control (human Alu qPCR)” value in the series with PC3-M-luc cells (docetaxel 7.5 mg/kg weekly intraperitoneal) came out at 20%. The “effect on activity of adriamycin” value in the series on PC3-M cells (10 μM KBU2046, PC3-M cells, FIG. 14) is “does not inhibit”. Also, in the series on PC3-M cells (10 μM KBU2046, PC3-M cells, FIG. 16), the “effect on activity of vinblastine” value is listed as “does not inhibit”. The “effect on activity of taxol” value in the series on PC3-M cells (10 μM KBU2046, PC3-M cells, FIG. 18) is “does not inhibit”. Besides, the “interference upon cytotoxic action of adriamycin, taxol and vinblastine” value in the series on PC3-M cells (KBU2046 co-administered, PC3-M cells) is reported as “lack of interference”. Besides, in series [1], the bone destruction result was “decreases”, the metastasis entry was “inhibits” and the survival result is reported as “prolongs”. Also, in the series on LNCaP/AR-luc cells, the “tumor growth (outgrowth in castrate mice)” value is “did not alter”.

These data come from patent US20220133894A1, “BISPHOSPHONATE-LINKED COMPOUNDS” (OREGON HEALTH & SCIENCE UNIVERSITY, priority 2019, published 2022).
